Source: US4962203A, “2-substituted quinolines useful as leukotriene antagonists” (Merck Frost Canada, Inc., priority 1989, dated 1990)

Assays:
[1] = system: guinea pig ileum (LTD4 induced contractions); experiment: Guinea-pig ileum assay: inhibition of LTD4 induced contractions; set-up: species or system male Hartley strain guinea pigs; details: for inhibition at 0.001 µg/mL / inhibition at 0.01 µg/mL / inhibition at 0.1 µg/mL / inhibition at 1 µg/mL / inhibition at 10 µg/mL: Cavia porcellus, LTD4 0.3 ng/mL, read-out: % inhibition of LTD4 induced contractions, G.P. ileum assay; for inhibition at 0.001 µg/mL: drug conc. 0.001 μg/mL; for inhibition at 0.01 µg/mL: drug conc. 0.01 μg/mL; for inhibition at 0.1 µg/mL: drug conc. 0.1 μg/mL; for inhibition at 1 µg/mL: drug conc. 1 μg/mL; for inhibition at 10 µg/mL: drug conc. 10 μg/mL; for ability to inhibit LTD4 contractions of the guinea pig ileum, times greater than the reference compound: relative to the reference compound of Table I
Protocol: Guinea-Pig Ileum Preparation for Evaluation of Antagonists of Leukotriene D4 and Other Mediators
Tissue--Sections of ileum were taken from male Hartley strain guinea pigs (Charles River, U.S.A.) 300 to 500 g which were sacrificed by a blow to the head and exsanguinated. Terminal ileum was removed, cleaned with warm Tyrode's solution and then divided into segments of approximately […]. The segments of ileum were then mounted under 1 g tension in a 20 mL organ bath containing 10 mL of Tyrode's solution with the following composition (mM): NaCl, 137; KCl, 2.7; MgSO4, 7H2 O, 0.8; CaCl2, 1.8; NaH2 PO4, 0.42; NaHCO3, 11.9; Dextrose, 5.6. The bathing solution was continuously aerated with 95% O2 and 5% CO2 and bath temperature was maintained at 37° C. The beta adrenoceptor blocker, timolol (0.5 μg/mL) and the antimuscarinic agent atropine (1.0 μM) were present in the Tyrodeμs solution. Isometric tension changes were recorded using Grass FTO3 force displacement transducers (Grass Instrument G., Quincy, Mass.) connected to a Beckman Type R Dynograph. In order to wash the tissue, the bath solution was automatically aspirated and replaced with a constant volume (10 mL) of fresh solution by means of timer controlled solenoid valves.
After the tissues were stable a standard dose of LTD4 (0.3 ng/mL) was repeatedly added to the bath every 4-5 minutes (min contact, 30 sec wash, 3 min rest) until a consistent response was obtained (minimum of 4 responses). Following each addition of LTD4 the tissue was washed with Tyrode's solution until baseline tension was re-established. After consistent responses were obtained the tissues were used to screen compounds.
Usually, 10 μL of a 10 mg/mL solution of the compound to be tested was added to the bath 30 secs prior to the addition of LTD4. The compound and LTD4 remained in contact with the tissue until the maximum tension was developed (1 min) after which the tissue was washed repeatedly until the baseline was re-established. Percent inhibition relative to the immediately preceding control response was calculated for each dose of test compound. […] Provided the response was inhibited by less than 20%, the tissue was used immediately to evaluate another compound; when the response was inhibited by greater than 20%, cycles of LTD4 alone were added until a consistent response was re-established.

LTD4 binding = target: T1, LTD4 binding (Cavia porcellus, UniProt Q2NNR5); experiment: LTD4 binding assay; details: for IC50: 50% LTD4 bound, unit inferred, read-out: LTD4 binding assay, drug conc. (IC50 values for the numbered examples); for LTD4 binding activity, times greater than the reference compound: relative to the reference compound of Table I
T1 construct: from tissue
T1 sequence (Q2NNR5 1-340): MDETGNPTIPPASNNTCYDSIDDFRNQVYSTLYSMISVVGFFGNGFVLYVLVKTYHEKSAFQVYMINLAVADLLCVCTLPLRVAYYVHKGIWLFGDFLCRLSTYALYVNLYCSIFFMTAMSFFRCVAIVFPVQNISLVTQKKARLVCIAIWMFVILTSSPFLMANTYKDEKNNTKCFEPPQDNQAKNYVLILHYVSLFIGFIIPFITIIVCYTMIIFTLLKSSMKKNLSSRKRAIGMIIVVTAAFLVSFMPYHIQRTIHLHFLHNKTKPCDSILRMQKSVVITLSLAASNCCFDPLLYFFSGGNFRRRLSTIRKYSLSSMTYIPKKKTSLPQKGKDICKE
Protocol: The results for LTD4 binding were determined by the method of S. S. Pong and R. N. DeHaven, Proc. Nat. Acad. Sci. U.S.A., 80, 7415-7419 (1983).
The drug concentration in the LTD4 binding assay for the numbered examples are the IC50 values. The LTD4 binding activity of these ranges from at least 14 (Ex. 85) to at least 214 (Ex. 71) times greater than the reference compound. The actual differences are even greater since an IC50 was not obtained for the reference compound.

| IC50 (LTD4 binding) [nM] | % LTD4 bound, LTD4 binding assay (LTD4 binding; at the drug conc. (IC50)) [%] | LTD4 binding activity, times greater than the reference compound (LTD4 binding) | % LTD4 bound, LTD4 binding assay (LTD4 binding; reference compound, drug conc. 3 × 10^-6 (unit not given)) [%] | SMILES | inhibition at 0.001 µg/mL [1] [%] | inhibition at 0.01 µg/mL [1] [%] | inhibition at 0.1 µg/mL [1] [%] | inhibition at 1 µg/mL [1] [%] | inhibition at 10 µg/mL [1] [%] | ability to inhibit LTD4 contractions of the guinea pig ileum, times greater than the reference compound [1] |
| --- | --- | --- | --- | --- | --- | --- | --- | --- | --- | --- |
| – | 50 | – | – | CC(Oc1cccc(/C=C/c2ccc3ccc(Cl)cc3n2)c1)C(=O)O (stereo not drawn) | 38 | 94 | 95 | 97 | 94 | – |
| – | – | – | 76 | CC(Oc1cccc(Sc2ccc3ccc(Cl)cc3n2)c1)C(=O)O (stereo not drawn) [reference compound] | – | – | – | 27 | 89 | – |
| – | 50 | – | – | CC(Oc1cccc(C2CC2c2ccc3ccc(Cl)cc3n2)c1)c1nn[nH]n1 (stereo not drawn) | – | 37 | 87 | 96 | 94 | – |

Further lines, the compound ahead of its results:

| SMILES | IC50 (LTD4 binding) [nM] | % LTD4 bound, LTD4 binding assay (LTD4 binding; at the drug conc. (IC50)) [%] | LTD4 binding activity, times greater than the reference compound (LTD4 binding) | % LTD4 bound, LTD4 binding assay (LTD4 binding; reference compound, drug conc. 3 × 10^-6 (unit not given)) [%] | inhibition at 0.001 µg/mL [1] [%] | inhibition at 0.01 µg/mL [1] [%] | inhibition at 0.1 µg/mL [1] [%] | inhibition at 1 µg/mL [1] [%] | inhibition at 10 µg/mL [1] [%] | ability to inhibit LTD4 contractions of the guinea pig ileum, times greater than the reference compound [1] |
| --- | --- | --- | --- | --- | --- | --- | --- | --- | --- | --- |
| CC(Oc1cccc(OCc2ccc3ccc(Br)cc3n2)c1)C(=O)O (stereo not drawn) [Example 85, 2-(3-(7-bromoquinolin-2-ylmethoxy)phenoxy)propanoic acid] | 220 | 50 | at least 14 times | – | 0 | 10 | 57 | 93 | 100 | about 20 times |
| CC(Oc1cccc(C#Cc2ccc3ccc(Br)cc3n2)c1)C(=O)O (stereo not drawn) | 96 | 50 | – | – | 50 | 91 | 94 | 98 | 97 | – |
| CC(Oc1cccc(/C=C/c2ccc3ccc(Cl)cc3n2)c1)c1nn[nH]n1 (racemic) [Example 71, 5-(1-(3-(2-(7-chloroquinolin-2-yl)ethenyl)-phenoxy)ethyl)tetrazole] | 14 | 50 | at least 214 times | – | 67 | 92 | 100 | 98 | 97 | over 1000 times |
